According to PubChem BioAssay AID192 (DTP/NCI, 2004):
Where “and” joins values, the source holds several entries; their conditions need not be identical. Equal values may be shown once. Toxic doses and inconclusive results are not listed.

Test system: BDF1 mice, B16 melanoma ip, median survival T/C
Experiment: NCI In Vivo Anticancer Drug Screen. Data for tumor model B16 Melanoma (intraperitoneal) in B6D2F1 (BDF1) mice
Settings: endpoint: median survival time, higher = longer survival
In short: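 Tumor-bearing mice received test compound or vehicle. Survival or tumor size was then measured in both groups. The treated-group figure was divided by the control-group figure.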

[1] = dose: 8.0 micrograms/kg/injection, schedule: Q01DX009 (ip), vehicle: saline
[2] = dose: 50.0 mg/kg/injection, schedule: Q01DX009 (ip), vehicle: saline with Tween-80
[3] = dose: 100.0 mg/kg/injection, schedule: Q01DX009 (ip), vehicle: saline with Tween-80
[4] = dose: 200.0 mg/kg/injection, schedule: Q01DX009 (ip), vehicle: saline with Tween-80
[5] = dose: 400.0 mg/kg/injection, schedule: Q01DX009 (ip), vehicle: saline with Tween-80
[6] = dose: 25.0 mg/kg/injection, schedule: Q01DX009 (ip), vehicle: saline with Tween-80
[7] = dose: 3.12 mg/kg/injection, schedule: Q01DX009 (ip), vehicle: Klucel (hydroxypropylcellulose) (HPC)
[8] = dose: 100.0 mg/kg/injection, schedule: Q01DX009 (ip), vehicle: Klucel (hydroxypropylcellulose) (HPC)
[9] = dose: 200.0 mg/kg/injection, schedule: Q01DX009 (ip), vehicle: Klucel (hydroxypropylcellulose) (HPC)
[10] = dose: 12.5 mg/kg/injection, schedule: Q01DX009 (ip), vehicle: Klucel (hydroxypropylcellulose) (HPC)
[11] = dose: 25.0 mg/kg/injection, schedule: Q01DX009 (ip), vehicle: Klucel (hydroxypropylcellulose) (HPC)
[12] = dose: 50.0 mg/kg/injection, schedule: Q01DX009 (ip), vehicle: Klucel (hydroxypropylcellulose) (HPC)

Compound: CC1=CCC2(C)C(=O)CC3(C)C(CCC4C5(C)CCC(=O)C(C)(C)C5CCC43C)C2C1C (configuration not stated)
- T/C (dose: 1.75 mg/kg/injection, schedule: Q01DX008 (ip), vehicle: saline): 100 % of control
- T/C (dose: 3.5 mg/kg/injection, schedule: Q01DX008 (ip), vehicle: saline): 100 % of control
- T/C (dose: 7.0 mg/kg/injection, schedule: Q01DX008 (ip), vehicle: saline): 94 % of control
- T/C (dose: 14.0 mg/kg/injection, schedule: Q01DX008 (ip), vehicle: saline): 99 % of control

Compound: CCCCCCCCCCCCCC[n+]1ccccc1
- T/C (dose: 0.06 mg/kg/injection, schedule: Q01DX009 (ip), vehicle: saline with Tween-80): 86 % of control and 89 % of control
- T/C (dose: 0.13 mg/kg/injection, schedule: Q01DX009 (ip), vehicle: saline with Tween-80): 90 % of control
- T/C (dose: 0.25 mg/kg/injection, schedule: Q01DX009 (ip), vehicle: saline with Tween-80): 86 % of control
- T/C [1]: 88 % of control
- T/C (dose: 15.0 micrograms/kg/injection, schedule: Q01DX009 (ip), vehicle: saline): 91 % of control
- T/C (dose: 30.0 micrograms/kg/injection, schedule: Q01DX009 (ip), vehicle: saline): 94 % of control
- T/C (dose: 60.0 micrograms/kg/injection, schedule: Q01DX009 (ip), vehicle: saline): 88 % of control

Compound: CCOC(=O)C1(C(=O)OCC)COC(=O)C1
- T/C (dose: 16.0 mg/kg/injection, schedule: Q01DX009 (ip), vehicle: saline with Tween-80): 101 % of control
- T/C (dose: 32.0 mg/kg/injection, schedule: Q01DX009 (ip), vehicle: saline with Tween-80): 101 % of control
- T/C (dose: 64.0 mg/kg/injection, schedule: Q01DX009 (ip), vehicle: saline with Tween-80): 101 % of control
- T/C (dose: 128.0 mg/kg/injection, schedule: Q01DX009 (ip), vehicle: saline with Tween-80): 104 % of control
- T/C (dose: 256.0 mg/kg/injection, schedule: Q01DX009 (ip), vehicle: saline with Tween-80): 97 % of control

Compound: COc1cc2cc(c1Cl)N(C)C(=O)C[C@H](OC(=O)[C@H](C)N(C)C(C)=O)[C@]1(C)O[C@H]1[C@H](C)[C@@H]1C[C@@](O)(NC(=O)O1)[C@H](OC)C=C/C=C(\C)C2
- T/C (dose: 0.5 micrograms/kg/injection, schedule: Q01DX009 (ip), vehicle: saline): 110 % of control
- T/C (dose: 1.0 micrograms/kg/injection, schedule: Q01DX009 (ip), vehicle: saline + alcohol): 163 % of control
- T/C (dose: 2.0 micrograms/kg/injection, schedule: Q01DX009 (ip), vehicle: saline): 117 % of control
- T/C (dose: 2.0 micrograms/kg/injection, schedule: Q04DX003 (ip), vehicle: saline): 95 % of control
- T/C (dose: 4.0 micrograms/kg/injection, schedule: Q01DX009 (ip), vehicle: saline): 105 % of control
- T/C (dose: 4.0 micrograms/kg/injection, schedule: Q04DX003 (ip), vehicle: saline): 100 % of control
- T/C [1]: 155 % of control
- T/C (dose: 8.0 micrograms/kg/injection, schedule: Q04DX003 (ip), vehicle: saline): 97 % of control
- T/C (dose: 16.0 micrograms/kg/injection, schedule: Q01DX009 (ip), vehicle: saline): 157 % of control
- T/C (dose: 16.0 micrograms/kg/injection, schedule: Q04DX003 (ip), vehicle: saline): 108 % of control
- T/C (dose: 32.0 micrograms/kg/injection, schedule: Q01DX009 (ip), vehicle: saline): 97 % of control
- T/C (dose: 32.0 micrograms/kg/injection, schedule: Q04DX003 (ip), vehicle: saline): 100 % of control

Compound: CCCC1CC[N-]CC1.CCCC1CC[N-]CC1.CCCC1CC[N-]CC1.CCCC1CC[N-]CC1.CS(C)=O.CS(C)=O.[Cl-].[Cl-].[Cl-].[Cl-].[Cl][Rh][Cl].[Rh+3]
- T/C (dose: 1.56 mg/kg/injection, schedule: Q01DX009 (ip), vehicle: water): 105 % of control
- T/C (dose: 3.13 mg/kg/injection, schedule: Q01DX009 (ip), vehicle: water): 107 % of control
- T/C (dose: 6.25 mg/kg/injection, schedule: Q01DX009 (ip), vehicle: water): 120 % of control
- T/C (dose: 25.0 mg/kg/injection, schedule: Q01DX009 (ip), vehicle: water): 124 % of control

Compound: CCCCCCCCN(C)N=Nc1ccc(Cl)cc1C(=O)O
- T/C [2]: 103 % of control
- T/C [3]: 107 % of control

Compound: COc1cc(C2C(C(=O)OC/C=C/c3ccc4c(c3)OCO4)C(c3cc(OC)c(OC)c(OC)c3)C2C(=O)OC/C=C/c2ccc3c(c2)OCO3)cc(OC)c1OC (configuration not stated)
- T/C [2]: 98 % of control
- T/C [3]: 92 % of control
- T/C [4]: 88 % of control
- T/C [5]: 91 % of control

Compound: CCCCNc1ccc(Nc2ccccc2)cc1
- T/C (dose: 25.0 mg/kg/injection, schedule: Q01DX009 (ip), vehicle: saline + alcohol): 103 % of control
- T/C (dose: 50.0 mg/kg/injection, schedule: Q01DX009 (ip), vehicle: saline + alcohol): 104 % of control

Compound: COc1cc(C)c2c(=O)c3c(oc2c1)C(=O)c1c(O)c(OC)cc(O)c1C3=O
- T/C [6]: 105 % of control
- T/C [2]: 101 % of control
- T/C [3]: 96 % of control
- T/C [4]: 100 % of control

Compound: C=C1OC(=O)OC1(C)CC(OC)OC (configuration not stated)
- T/C [3]: 102 % of control
- T/C [4]: 113 % of control
- T/C [5]: 108 % of control

Compound: COC(=O)C1=C(C)NC(=O)NC1c1ccc(N(CCCl)CCCl)c(OC)c1 (configuration not stated)
- T/C (dose: 1.56 mg/kg/injection, schedule: Q01DX009 (ip), vehicle: Klucel (hydroxypropylcellulose) (HPC)): 154 % of control
- T/C [7]: 178 % of control
- T/C (dose: 3.13 mg/kg/injection, schedule: Q01DX009 (ip), vehicle: saline with Tween-80): 176 % of control
- T/C (dose: 6.25 mg/kg/injection, schedule: Q01DX009 (ip), vehicle: saline with Tween-80): 189 % of control

Compound: CN(C(N)=O)C1CCCC1
- T/C [3]: 114 % of control
- T/C [4]: 100 % of control
- T/C [5]: 93 % of control

Compound: COc1cccc2c1C(=O)c1c(O)c3c(c(O)c1C2=O)CC(O)(C(C)=O)CC3OC1CC(NC(=O)C(CCCCN)NC(=O)C2CCCN2)C(O)C(C)O1 (configuration not stated)
- T/C (dose: 10.0 mg/kg/injection, schedule: Q01DX001 (ip), vehicle: water): 117 % of control
- T/C (dose: 20.0 mg/kg/injection, schedule: Q01DX001 (ip), vehicle: water): 123 % of control
- T/C (dose: 40.0 mg/kg/injection, schedule: Q01DX001 (ip), vehicle: water): 158 % of control
- T/C (dose: 80.0 mg/kg/injection, schedule: Q01DX001 (ip), vehicle: water): 191 % of control

Compound: CCC(NC(=O)OC(C)(C)C)C(=O)O (configuration not stated)
- T/C (dose: 6.25 mg/kg/injection, schedule: Q01DX009 (ip), vehicle: saline): 100 % of control
- T/C (dose: 12.5 mg/kg/injection, schedule: Q01DX009 (ip), vehicle: saline): 95 % of control
- T/C (dose: 25.0 mg/kg/injection, schedule: Q01DX009 (ip), vehicle: saline): 95 % of control
- T/C (dose: 50.0 mg/kg/injection, schedule: Q01DX009 (ip), vehicle: saline): 88 % of control and 96 % of control

Compound: COc1cc2c(cc1OC)C1=CC(=O)N3CCCC34OS(=O)OC14CC2 (configuration not stated)
- T/C [8]: 110 % of control
- T/C [9]: 103 % of control
- T/C (dose: 400.0 mg/kg/injection, schedule: Q01DX009 (ip), vehicle: Klucel (hydroxypropylcellulose) (HPC)): 101 % of control

Compound: CCCC1=NNc2n[nH]c(=S)n2N1
- T/C [10]: 106 % of control
- T/C [11]: 112 % of control
- T/C [12]: 87 % of control

Compound: [O-][n+]1c(CCl)nc2cccc3c2c1-c1ccccc1-3
- T/C [6]: 101 % of control
- T/C [2]: 96 % of control
- T/C [3]: 90 % of control

Compound: O=C(O)CN(CCN(CC(=O)O)CC(=O)O)CCN(CC(=O)O)CC(=O)O
- T/C [7]: 94 % of control
- T/C (dose: 6.25 mg/kg/injection, schedule: Q01DX009 (ip), vehicle: Klucel (hydroxypropylcellulose) (HPC)): 93 % of control and 94 % of control
- T/C [10]: 102 % of control
- T/C [11]: 96 % of control
- T/C [12]: 88 % of control
- T/C [9]: 92 % of control

Compound: CC/C(=C(\c1ccccc1)c1ccc(OCCN(C)C)cc1)c1ccccc1
- T/C (dose: 25.0 mg/kg/injection, schedule: Q01DX009 (ip), vehicle: suspension in saline): 97 % of control
- T/C (dose: 50.0 mg/kg/injection, schedule: Q01DX009 (ip), vehicle: suspension in saline): 93 % of control
- T/C (dose: 100.0 mg/kg/injection, schedule: Q01DX009 (ip), vehicle: suspension in saline): 91 % of control
- T/C (dose: 200.0 mg/kg/injection, schedule: Q01DX009 (ip), vehicle: suspension in saline): 86 % of control

Compound: CC1(CCl)OCCO1
- T/C [12]: 96 % of control
- T/C [8]: 100 % of control
- T/C [9]: 100 % of control

Compound: COc1ccc(C(C)=O)cc1[N+](=O)[O-]
- T/C [2]: 97 % of control
- T/C [3]: 102 % of control
- T/C [4]: 105 % of control
